According to patent publication US9392792B1, “Topical combination of fipronil, permethrin and pyriproxyfen” (priority 2014, dated 2016):

Experiment: Crystallization test on glass slides at ambient temperature
Format: physicochemical
Details: comparison of compositions R1 and C2
Procedure: Number of glass slides per composition: 5 Protocol: • place the glass slides on a dark-coloured support; • deposit approximately 300 μl of the test composition on each glass slide, while spreading it on the central part of the glass slide (so as to avoid overspill); • leave the glass slide for 24 h in an environment at ambient temperature (approximately 20° C.). The following observations will be carried out: • the visual appearance (to the naked eye) of the compositions is observed after deposition thereof on a glass slide and reported in the observation table; • the visual appearance (to the naked eye) of the compositions is observed after 24 h at ambient temperature and is reported in the observation table while pointing out the possible presence and, where appropriate, the number of crystals present on the whole of the plate; • next, the plates are observed under polarized light and any crystals present are counted on the whole of the plate; an estimation of the size of the crystals is also carried out; • finally, the presence and the count of the crystals possibly present on each of the plates is reported in the observation table. […]

Q: For `CC(COc1ccc(Oc2ccccc2)cc1)Oc1ccccn1` (stereo not shown) [pyriproxyfen, Pyriproxyfen], which “effect of pyriproxyfen on crystallization of fipronil in the presence of permethrin at high concentration” value is on record?
A: substantially reduces the crystallization
